Results as given in PMC6917776, “Discovery of a chemical probe for PRDM9” (Nature Communications, 2019).
Several values for one entry are separate records, joined by “and”; a condition that tells them apart may be missing. Equal entries are not always repeated. Where two headings read alike, the source gives them in different places.

How the values were obtained:
[1] = biological target: T1, PRDM9 (amino acids: 195–415) (Homo sapiens, UniProt Q9NQV7); assay: PRDM9 methyltransferase activity assay (3H-SAM scintillation proximity assay); format: biochemical; details: for activity at 100 µM: 100 µM compound
T1 construct: PRDM9 (amino acids: 195–415)
T1 sequence (Q9NQV7 195-415): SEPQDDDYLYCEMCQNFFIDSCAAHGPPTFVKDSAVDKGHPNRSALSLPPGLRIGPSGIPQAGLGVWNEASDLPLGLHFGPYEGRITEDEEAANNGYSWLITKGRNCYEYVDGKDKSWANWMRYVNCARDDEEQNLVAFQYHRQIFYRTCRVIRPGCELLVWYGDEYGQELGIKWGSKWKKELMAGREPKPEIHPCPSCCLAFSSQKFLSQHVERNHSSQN
Description: Methyltransferase activity assays for PRDM9 (amino acids: 195–415) were performed by monitoring the incorporation of tritium-labeled methyl group from ^3H-SAM to H3 (1–25) peptide using scintillation proximity assay (SPA). The enzymatic reactions were performed at 23 °C with 30 min incubation in 20 mM Tris-HCl (pH 7.5), 5 mM DTT, 0.01% Triton X-100 and 1% DMSO containing 71 μM of SAM (5 μM of ^3H-SAM), 4 μM of biotinylated H3 (1–25) peptide and 5 nM of PRDM9. For PRDM7, reactions were performed at 23 °C with 90 min incubation in 20 mM BTP pH 9.0, 5 mM DTT, 0.01% Triton X-100 and 1% DMSO containing 900 μM of SAM (5 μM of ^3H-SAM), 4 μM of biotinylated H3 (1–25) peptide and 100 nM of enzyme. […] To stop the reactions, 10 μL of 7.5 M guanidine hydrochloride was added to 10 μL of reaction mixture, followed by 60 μL of buffer (20 mM Tris, pH 8.0), mixed, and transferred to a 384-well streptavidin coated Flash-plate. After mixing, the mixtures in Flash-plate were incubated for 2 h, and the CPM counts were measured using TopCount plate reader. All enzymatic reactions were performed in triplicate, and IC50 values were determined by fitting the data to Four Parameter Logistic equation using the GraphPad Prism software.

HCC1143 = assay: CelltiterGlo viability cell assay; format: cell-based; details: up to 30 μM; days 3 and 6; matched control line
Description: (§1) Supplementary Figure 13. […] Viability of
(§2) (a) Multiple Myeloma lines and (b) Breast Cancer cell lines following 3 or 6 days treatment with […]
(§3) manufacturer’s instructions as described in the Supplementary methods. Data are normalized to DMSO control. N=3 biological replicates, +/- SEM. Source data are provided as a Source Data […]
(§4) CelltiterGlo viability cell assay
(§5) Cells were seeded in 96 well plates at per-well densities of 10000 (MDA-MB436, ATCC-HTB130), 15000 (8226, kind gift from Rodger Tiedemann, Princess Margaret Cancer Centre), […]
(§6) kind gift from Rodger Tiedemann, Princess Margaret Cancer Centre) and 50000 (CAL851, kind gift from Mathieu Lupien, Princess Margaret Cancer Centre) and were treated at increasing concentrations of compounds ranging from 0.01 μM to 30 μM and assessed for proliferation using CelltiterGlo (Promega) following manufacturer’s instructions, as readout on days 3 and 6 as indicated. All cell lines were mycoplasma negative, as determined by MycoAlert™ Mycoplasma Detection Kit(Lonza). […]

HCC1806 = assay: CelltiterGlo viability cell assay; format: cell-based; details: up to 30 μM; days 3 and 6; Prdm9 expressing line
Description: as §1, §2, §3, §4, §5, §6

MDA-MB-436 = assay: CelltiterGlo viability cell assay; format: cell-based; details: up to 30 μM; days 3 and 6; matched control line
Description: as §1, §2, §3, §4, §5, §6

In the case of `COc1cc(OC)cc(-c2noc(N3CCN(C)C4(CCN(c5ccccc5)CC4)C3)n2)c1` [MRK-740-NC], the “PRDM9 inhibition (in words)” value [1] is reported as “inactive control compound”, the “PRDM9-Activity %, single experiments” value ([1]; 0.00610352 µM compound, 0.00610352 µM) is reported as 111.779% and 111.39% and the activity at 0.00610352 µM ([1]; 0.00610352 µM compound, n=6 MRK-740, n=3 MRK-740-NC, read-out: PRDM9-Activity %, Average) is reported as 110%. The activity at 0.00610352 µM ([1]; 0.00610352 µM compound, read-out: PRDM9-Activity %, single experiments) was 108%, the “PRDM9-Activity %, single experiments” value ([1]; 0.012207 µM compound, 0.012207 µM) was 116.346% and 113.283% and the activity at 0.012207 µM ([1]; 0.012207 µM compound, n=6 MRK-740, n=3 MRK-740-NC, read-out: PRDM9-Activity %, Average) was 115%. For the same compound, the activity at 0.012207 µM ([1]; 0.012207 µM compound, read-out: PRDM9-Activity %, single experiments) was 116%, the “PRDM9-Activity %, single experiments” value ([1]; 0.0244141 µM compound, 0.0244141 µM) was 104.873% and 111.39% and the activity at 0.0244141 µM ([1]; 0.0244141 µM compound, n=6 MRK-740, n=3 MRK-740-NC, read-out: PRDM9-Activity %, Average) was 111%. For the same compound, the activity at 0.0244141 µM ([1]; 0.0244141 µM compound, read-out: PRDM9-Activity %, single experiments) was 116%, the “PRDM9-Activity %, single experiments” value ([1]; 0.0488281 µM compound, 0.0488281 µM) was 125.258% and 118.268% and the activity at 0.0488281 µM ([1]; 0.0488281 µM compound, n=6 MRK-740, n=3 MRK-740-NC, read-out: PRDM9-Activity %, Average) was 122%. For the same compound, the activity at 0.0488281 µM ([1]; 0.0488281 µM compound, read-out: PRDM9-Activity %, single experiments) was 121%, the “PRDM9-Activity %, single experiments” value ([1]; 0.0976562 µM compound, 0.0976562 µM) was 107.407% and 111.807% and the activity at 0.0976562 µM ([1]; 0.0976562 µM compound, n=6 MRK-740, n=3 MRK-740-NC, read-out: PRDM9-Activity %, Average) was 109%. For the same compound, the activity at 0.0976562 µM ([1]; 0.0976562 µM compound, read-out: PRDM9-Activity %, single experiments) was 108%, the “PRDM9-Activity %, single experiments” value ([1]; 0.195312 µM compound, 0.195312 µM) was 118.212% and 116.151% and the activity at 0.195312 µM ([1]; 0.195312 µM compound, n=6 MRK-740, n=3 MRK-740-NC, read-out: PRDM9-Activity %, Average) was 119%. For the same compound, the activity at 0.195312 µM ([1]; 0.195312 µM compound, read-out: PRDM9-Activity %, single experiments) was 122%, the “PRDM9-Activity %, single experiments” value ([1]; 0.390625 µM compound, 0.390625 µM) was 107.574% and 115.149% and the activity at 0.390625 µM ([1]; 0.390625 µM compound, n=6 MRK-740, n=3 MRK-740-NC, read-out: PRDM9-Activity %, Average) was 111%. The activity at 0.390625 µM ([1]; 0.390625 µM compound, read-out: PRDM9-Activity %, single experiments) was 112%, the “PRDM9-Activity %, single experiments” value ([1]; 0.78125 µM compound, 0.78125 µM) was 116.708% and 121.749% and the activity at 0.78125 µM ([1]; 0.78125 µM compound, n=6 MRK-740, n=3 MRK-740-NC, read-out: PRDM9-Activity %, Average) was 119%. The activity at 0.78125 µM ([1]; 0.78125 µM compound, read-out: PRDM9-Activity %, single experiments) was 120%, the “PRDM9-Activity %, single experiments” value ([1]; 1.5625 µM compound, 1.5625 µM) was 114.731% and 115.595% and the activity at 1.5625 µM ([1]; 1.5625 µM compound, n=6 MRK-740, n=3 MRK-740-NC, read-out: PRDM9-Activity %, Average) was 116%. For the same compound, the activity at 1.5625 µM ([1]; 1.5625 µM compound, read-out: PRDM9-Activity %, single experiments) was 117%, the “PRDM9-Activity %, single experiments” value ([1]; 3.125 µM compound, 3.125 µM) was 124.004% and 125.898% and the activity at 3.125 µM ([1]; 3.125 µM compound, n=6 MRK-740, n=3 MRK-740-NC, read-out: PRDM9-Activity %, Average) was 123%. For the same compound, the activity at 3.125 µM ([1]; 3.125 µM compound, read-out: PRDM9-Activity %, single experiments) was 120%, the “PRDM9-Activity %, single experiments” value ([1]; 6.25 µM compound, 6.25 µM) was 105.486% and 104.623% and the activity at 6.25 µM ([1]; 6.25 µM compound, n=6 MRK-740, n=3 MRK-740-NC, read-out: PRDM9-Activity %, Average) was 105%. The activity at 6.25 µM ([1]; 6.25 µM compound, read-out: PRDM9-Activity %, single experiments) was 105%, the “PRDM9-Activity %, single experiments” value ([1]; 12.5 µM compound, 12.5 µM) was 112.476% and 115.762% and the activity at 12.5 µM ([1]; 12.5 µM compound, n=6 MRK-740, n=3 MRK-740-NC, read-out: PRDM9-Activity %, Average) was 114%. For the same compound, the activity at 12.5 µM ([1]; 12.5 µM compound, read-out: PRDM9-Activity %, single experiments) was 114%, the “PRDM9-Activity %, single experiments” value ([1]; 25 µM compound, 25 µM) was 98.6355% and 87.9699% and the activity at 25 µM ([1]; 25 µM compound, n=6 MRK-740, n=3 MRK-740-NC, read-out: PRDM9-Activity %, Average) was 94.3%. For the same compound, the activity at 25 µM ([1]; 25 µM compound, read-out: PRDM9-Activity %, single experiments) was 96.2%, the “PRDM9-Activity %, single experiments” value ([1]; 50 µM compound, 50 µM) was 103.397% and 100.975% and the activity at 50 µM ([1]; 50 µM compound, n=6 MRK-740, n=3 MRK-740-NC, read-out: PRDM9-Activity %, Average) was 102%. The activity at 50 µM ([1]; 50 µM compound, read-out: PRDM9-Activity %, single experiments) was 101%, the activity at 100 µM ([1]; n=3, read-out: PRDM9-Activity %, Average) was 80.5% and the activity at 100 µM ([1]; read-out: PRDM9-Activity %, single experiments) was 82.7%. The “Effect on proliferation (in words)” value (HCC1143) was “did not have any significant effect”, the “Effect on proliferation (in words)” value (HCC1806) was “did not have any significant effect” and the “Effect on proliferation (in words)” value (MDA-MB-436) was “did not have any significant effect”.
